Measurements as given in ChEMBL document CHEMBL5465560, “Selectivity Literature for EUbOPEN Chemogenomic Library” (2024).
One block for each molecule: values may come before it.

How the values were obtained:
[1] = target: RAC-gamma serine/threonine-protein kinase (Homo sapiens, UniProt Q9Y243); assay: Selectivity interaction (KinomeScan (DiscoverX)) EUB0000666a AKT3; conditions: at 10 µM
[2] = target: T1, MAP kinase-activated protein kinase 5 (Homo sapiens) (UniProt Q8IW41); assay: Selectivity interaction (Kinase panel (literature)) EUB0001199aCl MAPKAPK5; conditions: at 1 µM
T1 sequence (whole entry): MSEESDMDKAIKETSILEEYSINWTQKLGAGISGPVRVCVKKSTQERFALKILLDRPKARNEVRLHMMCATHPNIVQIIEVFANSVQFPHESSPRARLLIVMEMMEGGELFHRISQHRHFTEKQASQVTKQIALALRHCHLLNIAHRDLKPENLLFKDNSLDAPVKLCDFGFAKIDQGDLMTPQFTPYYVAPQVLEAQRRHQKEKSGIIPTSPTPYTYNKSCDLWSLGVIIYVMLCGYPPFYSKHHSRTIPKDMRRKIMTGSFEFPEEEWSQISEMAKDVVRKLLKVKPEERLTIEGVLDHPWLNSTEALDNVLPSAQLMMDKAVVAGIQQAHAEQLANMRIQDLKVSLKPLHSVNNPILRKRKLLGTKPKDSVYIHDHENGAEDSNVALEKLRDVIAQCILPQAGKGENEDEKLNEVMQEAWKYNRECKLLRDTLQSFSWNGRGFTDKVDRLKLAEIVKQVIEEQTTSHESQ

[3] = target: Insulin-like growth factor 1 receptor (Homo sapiens, UniProt P08069); conditions: at 10 µM
[4] = target: Receptor tyrosine-protein kinase erbB-4 (Homo sapiens, UniProt Q15303); assay: Selectivity interaction (Kinase panel (Invitrogen)) EUB0000639a ERBB4; conditions: at 200 nM
[5] = system: Tyrosine-protein kinase ABL1 (Homo sapiens), P00519 [F317L]; assay: Selectivity interaction (KinomeScan (DiscoverX)) EUB0001049a ABL1; conditions: at 1 µM
[6] = target: Receptor tyrosine-protein kinase erbB-3 (Homo sapiens) (UniProt P21860); assay: Selectivity interaction (KinomeScan (DiscoverX)) EUB0001049a ERBB3; conditions: at 1 µM
[7] = target: T2, Serine/threonine-protein kinase TAO1 (Homo sapiens) (UniProt Q7L7X3); assay: Selectivity interaction (Ambit KINOMEscan and KiNATiv profiling in Jurkat cells) EUB0000090b TAOK1; assay type: cell-based; conditions: at 1 µM
T2 sequence (whole entry): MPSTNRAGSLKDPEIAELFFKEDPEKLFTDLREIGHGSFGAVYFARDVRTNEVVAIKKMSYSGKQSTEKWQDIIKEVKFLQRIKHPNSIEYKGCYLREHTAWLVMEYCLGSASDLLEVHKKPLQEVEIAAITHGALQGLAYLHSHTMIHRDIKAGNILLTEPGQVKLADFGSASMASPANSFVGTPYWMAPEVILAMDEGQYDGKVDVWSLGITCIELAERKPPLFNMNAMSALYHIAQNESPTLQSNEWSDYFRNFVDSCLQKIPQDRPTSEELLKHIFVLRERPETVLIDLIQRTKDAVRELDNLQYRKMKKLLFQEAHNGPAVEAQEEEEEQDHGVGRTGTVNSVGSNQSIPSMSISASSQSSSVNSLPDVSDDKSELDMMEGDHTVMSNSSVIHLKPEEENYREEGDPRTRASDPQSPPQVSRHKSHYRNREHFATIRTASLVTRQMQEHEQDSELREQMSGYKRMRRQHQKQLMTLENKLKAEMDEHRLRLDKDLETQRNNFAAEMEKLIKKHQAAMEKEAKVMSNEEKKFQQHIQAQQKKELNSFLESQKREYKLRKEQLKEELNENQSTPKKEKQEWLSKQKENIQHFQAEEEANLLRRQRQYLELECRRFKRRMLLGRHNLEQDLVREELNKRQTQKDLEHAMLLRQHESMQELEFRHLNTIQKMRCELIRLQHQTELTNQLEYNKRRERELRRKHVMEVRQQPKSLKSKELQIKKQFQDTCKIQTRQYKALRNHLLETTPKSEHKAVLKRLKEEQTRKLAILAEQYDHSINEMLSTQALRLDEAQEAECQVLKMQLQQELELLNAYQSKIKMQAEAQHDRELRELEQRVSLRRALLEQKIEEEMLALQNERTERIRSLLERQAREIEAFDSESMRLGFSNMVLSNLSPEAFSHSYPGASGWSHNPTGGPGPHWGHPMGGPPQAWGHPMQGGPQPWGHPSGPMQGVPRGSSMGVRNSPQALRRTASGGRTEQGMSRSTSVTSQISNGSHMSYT

[8] = target: TGF-beta receptor type-2 (Homo sapiens) (UniProt P37173); assay: Selectivity interaction (Ambit KINOMEscan and KiNATiv profiling in Jurkat cells) EUB0000090b TGFBR2; assay type: cell-based; conditions: at 1 µM
[9] = target: Angiopoietin-1 receptor (Homo sapiens) (UniProt Q02763); assay: Selectivity interaction (KinomeScan (DiscoverX)) EUB0000655a TEK; conditions: at 10 µM
[10] = target: T3, Serine/threonine-protein kinase DCLK1 (Homo sapiens) (UniProt O15075); assay: Selectivity interaction (KinomeScan (DiscoverX)) EUB0000618a DCLK1; conditions: at 10 µM
T3 sequence (whole entry): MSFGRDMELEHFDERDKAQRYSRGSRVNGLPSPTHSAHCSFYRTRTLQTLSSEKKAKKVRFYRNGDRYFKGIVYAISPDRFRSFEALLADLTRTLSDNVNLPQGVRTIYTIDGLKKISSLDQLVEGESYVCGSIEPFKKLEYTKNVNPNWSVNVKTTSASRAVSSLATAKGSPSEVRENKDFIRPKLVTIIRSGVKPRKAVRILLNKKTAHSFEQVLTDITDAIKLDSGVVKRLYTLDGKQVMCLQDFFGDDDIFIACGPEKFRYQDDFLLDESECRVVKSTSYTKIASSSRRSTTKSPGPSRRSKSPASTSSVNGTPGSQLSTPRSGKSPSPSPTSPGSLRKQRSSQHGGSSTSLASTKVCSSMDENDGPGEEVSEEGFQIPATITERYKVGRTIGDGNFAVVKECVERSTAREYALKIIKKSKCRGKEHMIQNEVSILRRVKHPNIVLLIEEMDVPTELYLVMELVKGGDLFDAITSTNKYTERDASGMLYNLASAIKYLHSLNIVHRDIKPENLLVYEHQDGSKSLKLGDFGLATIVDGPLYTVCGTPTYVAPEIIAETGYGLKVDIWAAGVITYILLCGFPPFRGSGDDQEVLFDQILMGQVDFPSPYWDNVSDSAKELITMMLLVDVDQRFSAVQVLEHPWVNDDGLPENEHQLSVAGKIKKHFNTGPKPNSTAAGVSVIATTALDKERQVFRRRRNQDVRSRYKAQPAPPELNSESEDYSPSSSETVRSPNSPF

[11] = target: Serine/threonine-protein kinase PAK 6 (Homo sapiens) (UniProt Q9NQU5); assay: Selectivity interaction (KinomeScan (DiscoverX)) EUB0000618a PAK6; conditions: at 10 µM

Chain of Angiopoietin-1 receptor (Homo sapiens) (Q02763 whole entry): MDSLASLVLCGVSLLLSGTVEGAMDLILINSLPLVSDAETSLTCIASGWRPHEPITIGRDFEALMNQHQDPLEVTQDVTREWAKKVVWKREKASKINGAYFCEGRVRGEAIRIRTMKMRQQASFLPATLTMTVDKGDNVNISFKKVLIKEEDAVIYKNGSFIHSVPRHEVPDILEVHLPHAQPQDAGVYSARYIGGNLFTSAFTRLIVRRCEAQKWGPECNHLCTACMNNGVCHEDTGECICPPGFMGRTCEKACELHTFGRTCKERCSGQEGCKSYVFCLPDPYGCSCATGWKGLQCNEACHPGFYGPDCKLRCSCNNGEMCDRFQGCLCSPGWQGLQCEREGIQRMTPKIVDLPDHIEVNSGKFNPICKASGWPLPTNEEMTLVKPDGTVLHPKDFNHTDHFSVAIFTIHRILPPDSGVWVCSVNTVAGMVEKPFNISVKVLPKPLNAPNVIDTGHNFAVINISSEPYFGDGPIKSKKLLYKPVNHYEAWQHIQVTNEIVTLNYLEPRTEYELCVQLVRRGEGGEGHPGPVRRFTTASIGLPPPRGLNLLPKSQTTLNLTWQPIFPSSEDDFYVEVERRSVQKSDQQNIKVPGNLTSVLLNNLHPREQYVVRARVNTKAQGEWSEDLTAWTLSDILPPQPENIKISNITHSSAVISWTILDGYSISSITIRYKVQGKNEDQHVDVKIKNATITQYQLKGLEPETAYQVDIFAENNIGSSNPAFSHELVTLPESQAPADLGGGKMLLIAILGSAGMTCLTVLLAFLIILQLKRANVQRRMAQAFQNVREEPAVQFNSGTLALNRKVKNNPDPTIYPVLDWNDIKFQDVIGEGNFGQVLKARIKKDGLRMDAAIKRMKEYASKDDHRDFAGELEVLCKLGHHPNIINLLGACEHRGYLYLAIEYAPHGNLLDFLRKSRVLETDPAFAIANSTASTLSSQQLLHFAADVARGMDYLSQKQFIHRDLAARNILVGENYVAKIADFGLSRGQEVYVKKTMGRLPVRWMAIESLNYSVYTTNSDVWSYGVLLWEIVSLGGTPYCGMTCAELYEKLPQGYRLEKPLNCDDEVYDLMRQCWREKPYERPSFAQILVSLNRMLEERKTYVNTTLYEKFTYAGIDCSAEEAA
Chain of Receptor tyrosine-protein kinase erbB-3 (Homo sapiens) (P21860 whole entry): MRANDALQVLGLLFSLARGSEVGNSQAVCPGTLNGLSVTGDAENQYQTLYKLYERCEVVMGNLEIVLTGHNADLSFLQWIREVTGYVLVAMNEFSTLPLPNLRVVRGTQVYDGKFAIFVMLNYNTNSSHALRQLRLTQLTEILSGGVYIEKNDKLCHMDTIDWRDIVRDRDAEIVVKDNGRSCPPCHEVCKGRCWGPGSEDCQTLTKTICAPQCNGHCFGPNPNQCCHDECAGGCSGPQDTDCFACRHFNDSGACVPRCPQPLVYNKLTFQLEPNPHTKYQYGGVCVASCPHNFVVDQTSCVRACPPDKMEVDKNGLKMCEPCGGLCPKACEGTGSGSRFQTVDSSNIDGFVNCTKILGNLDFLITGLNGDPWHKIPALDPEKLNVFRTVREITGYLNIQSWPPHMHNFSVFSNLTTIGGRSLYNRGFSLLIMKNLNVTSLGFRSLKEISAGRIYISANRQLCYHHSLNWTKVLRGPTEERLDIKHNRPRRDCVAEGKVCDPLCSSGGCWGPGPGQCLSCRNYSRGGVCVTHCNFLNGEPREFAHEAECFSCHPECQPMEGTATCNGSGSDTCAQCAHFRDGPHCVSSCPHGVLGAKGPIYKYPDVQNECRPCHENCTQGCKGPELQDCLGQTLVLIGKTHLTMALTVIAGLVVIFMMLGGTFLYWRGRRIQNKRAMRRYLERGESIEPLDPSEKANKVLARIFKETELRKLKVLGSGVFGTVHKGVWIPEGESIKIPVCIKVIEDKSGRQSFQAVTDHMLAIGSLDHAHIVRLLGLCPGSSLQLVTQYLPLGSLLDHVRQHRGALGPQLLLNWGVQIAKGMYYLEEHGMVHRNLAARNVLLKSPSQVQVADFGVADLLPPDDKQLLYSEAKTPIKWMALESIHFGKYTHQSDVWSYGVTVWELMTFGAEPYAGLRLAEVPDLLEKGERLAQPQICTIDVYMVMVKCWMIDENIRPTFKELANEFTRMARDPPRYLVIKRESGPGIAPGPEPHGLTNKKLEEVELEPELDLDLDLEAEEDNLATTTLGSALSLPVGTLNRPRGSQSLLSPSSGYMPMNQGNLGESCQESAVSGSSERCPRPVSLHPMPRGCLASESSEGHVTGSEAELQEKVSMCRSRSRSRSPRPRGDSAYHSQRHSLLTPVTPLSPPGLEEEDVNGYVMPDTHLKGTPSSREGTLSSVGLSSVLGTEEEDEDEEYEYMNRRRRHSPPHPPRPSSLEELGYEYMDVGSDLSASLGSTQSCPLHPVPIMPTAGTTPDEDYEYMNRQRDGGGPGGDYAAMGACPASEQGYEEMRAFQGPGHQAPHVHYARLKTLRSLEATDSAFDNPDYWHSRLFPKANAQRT
Chain of Insulin-like growth factor 1 receptor (P08069 31-736 limits assumed): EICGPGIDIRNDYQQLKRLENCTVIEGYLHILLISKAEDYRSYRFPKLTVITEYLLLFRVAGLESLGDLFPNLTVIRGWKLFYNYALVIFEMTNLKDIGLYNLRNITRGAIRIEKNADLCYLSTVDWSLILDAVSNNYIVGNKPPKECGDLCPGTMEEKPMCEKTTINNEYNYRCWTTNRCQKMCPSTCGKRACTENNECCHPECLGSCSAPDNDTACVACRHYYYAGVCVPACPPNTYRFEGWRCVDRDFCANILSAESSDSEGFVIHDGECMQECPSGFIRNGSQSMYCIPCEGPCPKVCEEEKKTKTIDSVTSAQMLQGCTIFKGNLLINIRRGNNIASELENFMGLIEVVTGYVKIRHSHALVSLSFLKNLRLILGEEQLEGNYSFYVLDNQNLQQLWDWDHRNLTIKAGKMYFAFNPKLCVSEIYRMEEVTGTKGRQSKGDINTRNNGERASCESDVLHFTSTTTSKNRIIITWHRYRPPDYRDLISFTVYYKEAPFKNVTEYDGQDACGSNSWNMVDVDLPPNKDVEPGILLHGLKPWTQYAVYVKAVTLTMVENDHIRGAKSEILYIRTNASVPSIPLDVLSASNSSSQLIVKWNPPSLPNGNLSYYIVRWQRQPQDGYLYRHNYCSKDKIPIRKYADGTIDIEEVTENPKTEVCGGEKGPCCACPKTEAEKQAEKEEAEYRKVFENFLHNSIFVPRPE
Chain of Insulin-like growth factor 1 receptor (P08069 741-1367 limits assumed): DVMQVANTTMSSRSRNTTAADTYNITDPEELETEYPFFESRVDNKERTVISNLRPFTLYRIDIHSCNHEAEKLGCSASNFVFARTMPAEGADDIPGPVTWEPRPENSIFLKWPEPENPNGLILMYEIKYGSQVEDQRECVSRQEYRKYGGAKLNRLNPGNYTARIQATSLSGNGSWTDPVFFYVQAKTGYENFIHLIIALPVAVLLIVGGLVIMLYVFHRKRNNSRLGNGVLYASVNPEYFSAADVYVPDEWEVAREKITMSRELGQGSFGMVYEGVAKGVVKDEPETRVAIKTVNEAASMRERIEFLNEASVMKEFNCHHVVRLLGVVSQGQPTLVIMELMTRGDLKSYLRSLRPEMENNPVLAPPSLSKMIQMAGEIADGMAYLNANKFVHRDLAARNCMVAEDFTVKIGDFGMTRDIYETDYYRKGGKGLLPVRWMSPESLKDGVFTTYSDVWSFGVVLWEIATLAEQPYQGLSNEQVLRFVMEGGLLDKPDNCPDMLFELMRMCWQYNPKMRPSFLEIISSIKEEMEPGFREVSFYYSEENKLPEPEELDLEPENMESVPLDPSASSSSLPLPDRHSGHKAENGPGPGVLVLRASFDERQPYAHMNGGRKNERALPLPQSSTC
Chain of RAC-gamma serine/threonine-protein kinase (Q9Y243 whole entry): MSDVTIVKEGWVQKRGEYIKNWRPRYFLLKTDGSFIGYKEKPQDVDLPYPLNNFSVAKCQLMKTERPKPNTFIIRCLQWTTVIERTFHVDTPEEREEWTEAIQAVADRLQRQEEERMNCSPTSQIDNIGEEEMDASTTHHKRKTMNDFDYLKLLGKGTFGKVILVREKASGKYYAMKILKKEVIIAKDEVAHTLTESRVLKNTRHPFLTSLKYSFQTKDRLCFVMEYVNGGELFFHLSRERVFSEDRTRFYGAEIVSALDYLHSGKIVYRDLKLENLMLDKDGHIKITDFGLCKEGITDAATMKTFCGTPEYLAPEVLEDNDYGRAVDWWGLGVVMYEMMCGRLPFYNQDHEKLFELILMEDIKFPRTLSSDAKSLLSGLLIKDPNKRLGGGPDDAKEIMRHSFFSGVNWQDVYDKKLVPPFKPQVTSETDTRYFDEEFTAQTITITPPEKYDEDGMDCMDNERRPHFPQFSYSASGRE
Chain of TGF-beta receptor type-2 (Homo sapiens) (P37173 whole entry): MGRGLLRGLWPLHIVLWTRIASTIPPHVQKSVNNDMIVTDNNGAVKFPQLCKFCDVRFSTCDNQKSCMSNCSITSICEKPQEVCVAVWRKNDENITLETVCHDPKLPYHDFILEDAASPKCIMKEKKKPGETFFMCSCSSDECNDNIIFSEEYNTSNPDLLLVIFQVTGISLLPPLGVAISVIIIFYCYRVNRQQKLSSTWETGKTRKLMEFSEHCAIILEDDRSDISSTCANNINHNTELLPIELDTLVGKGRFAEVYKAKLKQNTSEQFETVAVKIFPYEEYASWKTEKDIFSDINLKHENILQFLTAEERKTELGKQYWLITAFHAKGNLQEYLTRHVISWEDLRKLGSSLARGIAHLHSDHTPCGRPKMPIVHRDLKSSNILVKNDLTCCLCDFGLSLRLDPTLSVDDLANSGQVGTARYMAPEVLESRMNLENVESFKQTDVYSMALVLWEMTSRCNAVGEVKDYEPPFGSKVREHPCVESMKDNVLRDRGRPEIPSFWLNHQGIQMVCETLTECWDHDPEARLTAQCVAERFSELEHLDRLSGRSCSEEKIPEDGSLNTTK

Compound: O=C(NOC[C@H](O)CO)c1ccc(F)c(F)c1Nc1ccc(I)cc1F
% of control [1]: 89%

% of inhibition [2]: -1%
Compound: CN1Cc2nccc(-c3cn(C)nc3-c3ccc(F)cc3)c2C1=O

% of control [3]: 100%
Compound: CCN(CC)CCCCNc1ncc2cc(-c3cc(OC)cc(OC)c3)c(NC(=O)NC(C)(C)C)nc2n1

% of inhibition [4]: 8.76%
Compound: CC[C@@H]1[C@H](F)C(=O)N[C@@H]1COc1nccc2cc(C(N)=O)c(OC)cc12 [ZIMLOVISERTIB]

Compound: COc1cc(Nc2nc(C)cc(-c3cnn4nc(OC)ccc34)n2)cc(C(F)(F)F)c1
% of control [5]: 91% | % of control [6]: 100%

Compound: CN(C)C/C=C/C(=O)Nc1ccc(C(=O)N2CCCC(Nc3ncc(Cl)c(-c4c[nH]c5ccccc45)n3)C2)cc1 (stereo unspecified)
% of control [7]: 93% | % of control [8]: 87%

Compound: CN(C)CCOc1ccc(-c2nc(-c3ccncc3)c(-c3ccc4c(c3)CC/C4=N\O)[nH]2)cc1
% of control [9]: 63%

Compound: O[C@H]1CC[C@H](Nc2ncc3nc(Nc4c(F)cc(F)cc4F)n([C@H]4CCOC4)c3n2)CC1
% of control [10]: 81% | % of control [11]: 100%
